Results on eleven compounds are retold here after patent publication US20240300968A1, “6-SUBSTITUTED NAPHTHALENE-1,3-DISULFONIC ACID DERIVATIVES AS MODULATORS OF THE EXTRACELLULAR NICOTINAMIDE PHOSPHORIBOSYL TRANSFERASE (ENAMPT) FOR THE TREATMENT OF E.G. DIABETES” (The University of Manchester, priority 2021, published 2024).

One may read the inhibition as the share of the control response that was lost under treatment.

Where two headings read alike, the source gives them in different places. Some results are limits rather than exact numbers.

Assay [1] addresses T1, NAMPT (Homo sapiens (Human), UniProt P43490). The assay is described as follows: Tm shift assay (thermal melting, SYPRO Orange). Type of assay: binding. Conditions: read-out: NAMPT Tm shift.
The subject of another assay is THP-1 cells. The assay is described as follows: THP-1 WST-1 assay. Format: cell-based. The conditions noted are these: Homo sapiens, 1 μM test compound, 48 hrs, average of three replicates. As for the experimental part:
THP-1 cells were plated at […] (400,000 cells per mL) in a final volume of 150 μL media (RPMI-1640 containing 10% v/v FBS) containing 1 μM test compound. Samples were incubated for 48 hrs at which point 15 μL WST-1 solution (Sigma-Aldrich) was added. Light was excluded and the samples incubated for a further 2 hrs. Absorbance of wells were read at 450 nm and 630 nm using a Hidex Sense plate reader. Metabolic inhibition was determined by the absorbance at 450 nm and transformed to % control using Excel. Data reported is an average of three replicates.
In general terms: Tetrazolium assays rely on reduction of a dye to a coloured formazan, in cell work by metabolically active cells.

For assay [2], the target named is T1, NAMPT. The assay is described as follows: Native mass spectrometry of NAMPT incubated with compound. Format: binding. The conditions noted are these: NAMPT 5 μmol/l with compound 5 μmol/l, 12 hours; m/z 6125-6500 region.
Setting [3] is: compound 100 μM, shift vs protein without ligand, mean of 3 independent repeats.

T1 sequence (P43490 whole entry, species assumed): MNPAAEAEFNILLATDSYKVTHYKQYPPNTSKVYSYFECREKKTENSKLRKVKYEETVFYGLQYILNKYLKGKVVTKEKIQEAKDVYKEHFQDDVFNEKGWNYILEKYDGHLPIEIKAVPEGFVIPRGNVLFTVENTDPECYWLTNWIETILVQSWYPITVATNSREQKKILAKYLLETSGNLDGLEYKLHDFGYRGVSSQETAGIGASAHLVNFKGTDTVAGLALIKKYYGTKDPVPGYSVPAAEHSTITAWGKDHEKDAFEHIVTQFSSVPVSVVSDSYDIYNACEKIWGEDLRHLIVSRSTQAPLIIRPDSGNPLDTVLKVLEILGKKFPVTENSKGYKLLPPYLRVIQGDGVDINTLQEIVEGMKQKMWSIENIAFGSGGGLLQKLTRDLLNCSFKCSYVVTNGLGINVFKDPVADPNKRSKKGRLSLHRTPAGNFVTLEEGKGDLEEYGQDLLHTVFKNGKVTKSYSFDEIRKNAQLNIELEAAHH

Turning to `O=C(NCc1ccc(F)c(-c2ccc3cc(S(=O)(=O)O)cc(S(=O)(=O)O)c3c2)c1)Nc1ccc(S(=O)(=O)N2CCCCC2)cc1` [Example 1, 6-(2-fluoro-5-((3-(4-(piperidin-1-ylsulfonyl)phenyl)ureido)methyl)phenyl)-4-(trioxidaneylthio)naphthalene-2-sulfonic acid], the ΔTm at 100 µM on NAMPT [1] (setting [3]) is 10.3 °C. Besides, the inhibition at 1 µM in the assay with THP-1 cells is below 0%. The like results for `O=C(/C=C/c1ccc(F)c(-c2ccc3cc(S(=O)(=O)O)cc(S(=O)(=O)O)c3c2)c1)NCCCCC1CCN(C(=O)c2ccccc2)CC1` [Example 2, (E)-6-(5-(3-((4-(1-benzoylpiperidin-4-yl)butyl)amino)-3-oxoprop-1-en-1-yl)-2-fluorophenyl)-4-(trioxidaneylthio)naphthalene-2-sulfonic acid] were, in that order, 9.1 °C and 70.4%. As to `O=C(NCc1ccc(F)c(-c2ccc3cc(S(=O)(=O)O)cc(S(=O)(=O)O)c3c2)c1)Nc1ccc(S(=O)(=O)c2ccccc2)cc1` [Example 3, 6-(2-fluoro-5-((3-(4-(phenylsulfonyl)phenyl)ureido)methyl)phenyl)-4-(trioxidaneylthio) naphthalene-2-sulfonic acid], the ΔTm at 100 µM on NAMPT [1] (setting [3]) was 12.2 °C. Further, the inhibition at 1 µM with THP-1 cells was below 0%. `O=S(=O)(O)c1cc(S(=O)(=O)O)c2cc(-c3cccc(-c4cn(CCCCCCOc5ccccc5-c5ccccc5)nn4)c3)ccc2c1` [Example 4] displayed an inhibition at 1 µM in the assay on THP-1 cells below 0%. For `O=C(NCc1cccc(-c2ccc3cc(S(=O)(=O)O)cc(S(=O)(=O)O)c3c2)c1)Nc1ccc(S(=O)(=O)N2CCCCC2)cc1` [Example 5], the ΔTm at 100 µM at NAMPT [1] (setting [3]) was determined as 10.8 °C. The inhibition at 1 µM in the assay on THP-1 cells is below 0%. Turning to `O=C(NCc1cc(-c2ccc3cc(S(=O)(=O)O)cc(S(=O)(=O)O)c3c2)ccc1F)Nc1ccc(S(=O)(=O)N2CCCCC2)cc1` [Example 6, 6-(4-fluoro-3-((3-(4-(piperidin-1-ylsulfonyl)phenyl)ureido)methyl)phenyl)-4-(trioxidaneylthio) naphthalene-2-sulfonic acid], the ΔTm at 100 µM on NAMPT [1] (setting [3]) stood at 9.6 °C. The inhibition at 1 µM in the assay with THP-1 cells was found to be 1%.

Turning to `COc1ccc(CNC(=O)Nc2ccc(S(=O)(=O)N3CCCCC3)cc2)cc1-c1ccc2cc(S(=O)(=O)O)cc(S(=O)(=O)O)c2c1` [Example 7], the ΔTm at 100 µM on NAMPT [1] (setting [3]) was determined as 7.5 °C. In the assay on THP-1 cells, this compound gave an inhibition at 1 µM below 0%. For `O=C(NCc1ccc(F)c(-c2ccc3cc(S(=O)(=O)O)cc(S(=O)(=O)O)c3c2)c1)Nc1ccc(S(=O)(=O)N2CC3CCC(C2)O3)cc1` [Example 8, 6-(5-((3-(4-((8-oxa-3-azabicyclo[3.2.1]octan-3-yl)sulfonyl)phenyl)ureido)methyl)-2-fluorophenyl)-4-(trioxidaneylthio)naphthalene-2-sulfonic acid], the ΔTm at 100 µM on NAMPT [1] (setting [3]) is 9.7 °C. Further, the inhibition at 1 µM with THP-1 cells is below 0%. As for `O=C(NCc1ccc(S(=O)(=O)N2CCCCC2)cc1)c1cc2cc(-c3ccc4cc(S(=O)(=O)O)cc(S(=O)(=O)O)c4c3)ccc2[nH]1` [Example 9], at NAMPT [1] (setting [3]), the ΔTm at 100 µM came to 4.2 °C. Further, the inhibition at 1 µM in the assay with THP-1 cells was below 0%. As for `O=C(NC[C@@H]1CCOC1)c1ccc(NC(=O)N2Cc3ccc(-c4ccc5cc(S(=O)(=O)O)cc(SOOO)c5c4)cc3C2)cc1` [Example 10, (S)-6-(2-((4-(((Tetrahydrofuran-3-yl)methyl)carbamoyl)phenyl)carbamoyl)isoindolin-5-yl)-4-(trioxidaneylthio)naphthalene-2-sulfonic acid], at NAMPT [1] (setting [3]), the ΔTm at 100 µM turned out to be 20.5 °C.

Turning to `O=C(/C=C/c1cccnc1)NCCCCC1CCN(C(=O)c2ccccc2)CC1` [FK866, (E)-N-[4-(1-benzoylpiperidin-4-yl)butyl]-3-pyridin-3-ylprop-2-enamide, reference compound], the ΔTm at 100 µM at NAMPT [1] is 2.6 °C. The “complex between NAMPT and compound in native mass spectrum” value at NAMPT [2] was “complex dissociates”. The compound further showed an inhibition at 1 µM in the assay on THP-1 cells of 79.6%.
